Test results from patent publication US8383816B2, “Aryl-quinolyl compounds and their use” (Cancer Research Technology Limited, priority 2008, dated 2013).

Key:
B-RAF = B-RAF (Homo sapiens, UniProt P15056, V600E); experiment: DELFIA Kinase Assay; assay type: biochemical; details: 100 μM ATP
Procedure: Biological Methods—DELFIA Kinase Assay
Compounds were assessed by a kinase assay performed according to the following protocol.
DELFIA Kinase Buffer (DKB):
DKB1 (DKB with B-RAF and MEK Protein):
Combine 4950 μL of DKB and 50 μL of 2.5 mg/ml GST-MEK stock (to give […] of MEK per 40 μL). Then add 22.5 μL of B-RAF to give ˜0.2 μL of B-RAF per 40 μL.
DKB2 (DKB with MEK Protein):
Combine 4950 μL of DKB and 50 μL of 2.5 mg/ml GST-MEK stock (to give 1 mg of MEK per 40 μL). Use 500 μL of this for the blow out (BO) and the empty vector (EV) control.
100 mM stock, dilute to 500 μM to give 100 μM final concentration in assay.
Inhibitors (Test Compounds):
Phospho-MEK½ CST #9121S diluted 1:1000 in DELFIA assay buffer (AB). Preincubate antibody in the AB for 30 minutes at room temperature prior to use.
Anti-rabbit-Eur labelled secondary Perkin Elmer #AD0105 diluted 1:1000 in DELFIA assay buffer (AB). Preincubate antibody in the AB for 30 minutes at room temperature prior to use. (Primary and secondary antibodies were incubated together.)
1. Preblock wells with 5% milk in TBS for 1 hour.
2. Wash wells with 3× with 200 μL TBS.
3. Plate out 40 μL of DKB1 for all inhibitors (test compounds), DMSO control, and optionally other control compounds.
4. Plate out 40 μL of DKB2 for BO and EV wells.
5. Add inhibitors (test compounds) at 0.5 μL per well according to desired plate layout.
6. Add 0.5 μL DMSO to vehicle control wells.
7. Add 2 μL of B-RAF to BO and EV wells.
8. Pre-incubate with inhibitors (test compounds) for 10 minutes at room temperature with shaking.
9. Add 10 μL of 500 μM ATP stock, in DKB, to give 100 μM assay concentration.
10. Seal plates with TopSeal and incubate at room temperature with shaking for 45 minutes.
11. Wash plates 3× with 200 μL 0.1% Tween20/Water to terminate reaction.
12. Add 50 μL per well of antibody mix and incubate for 1 hour at room temperature with shaking.
13. Wash plates 3× with 200 μL 0.1% Tween20/Water.
14. Add 100 μL DELFIA enhancement solution per well, cover in foil, and incubate at room temperature for 30 minutes with shaking.
15. Read on Victor using Europium protocol.
(§1) Values for the blank (Empty Vector) are subtracted from all values. The DMSO controls are set as 100% activity and assay points (the response) are calculated as a percentage of the DMSO control. Data are plotted using Graphpad Prism software and a non-linear regression line is calculated using a variable slope sigmoidal dose-response equation (Y=Bottom+(Top−Bottom)/(1+10^((LogEC50−X)*HillSlope)) where X is the logarithm of concentration. Y is the response). The IC50 generated by this procedure is the concentration of the drug that produces a percentage control fluorescence value midway between the saturation, and zero-effect plateaus. Three independent assays are usually performed and the mean IC50 is reported.

pERK = experiment: Cell Based Phospho-ERK Assay; details: 6 h, cells incubated with test compound for 6 hours
Procedure: Biological Methods—Cell Based Phosho-ERK Assay
Compounds were assessed using a cell-based assay which was performed according to the following protocol.
Plate out 16,000 cells/well in 99 μL medium in a 96-well plate.
1. Add 1 μL inhibitor to the cells […].
2. Incubate the cells with test compound for 6 hours at 37° C.
3. Aspirate off the solution from all of the wells.
4. Fixate the cells with 100 μL 4% formaldehyde/0.25% Triton X-100 PBS per well.
5. Incubate the plate for 1 hour at 4° C.
6. Aspirate off the fixing solution and add 300 μL TBS per well.
7. Leave the plate overnight at 4° C.
1. Wash the plate 2× with 200 μL PBS per well.
2. Block with 100 μL 5% dried milk in TBS.
3. Incubate the plate for 20 minutes at 37° C.
4. Wash the plate 2× with 0.1% tween/H2O.
5. Add 50 μL of 3 μg/mL primary antibody pERK (Sigma M8159), diluted in 5% milk powder/TBS, to each well.
6. Incubate the plate for 2 hours at 37° C.
7. Wash the plate 3× with 0.1% tween/H2O.
8. Add 50 μL of 0.45 μg/mL secondary Europium-labelled anti-mouse antibody (Perkin Elmer) to each well.
9. Incubate the plate for 1 hour at 37° C.
10. Wash the plate 3× with 0.1% tween/H2O.
11. Add 100 μL enhancement solution (Perkin Elmer) to each well.
12. Leave the plate for approximately 10 minutes at room temperature before gently shaking the plate.
13. Read Europium Time Resolved Fluorescence in Victor2.
14. Wash the plate 2× with 0.1% tween/H2O.
15. Measure the protein concentration with BCA (Sigma) by adding 200 μL of solution per well.
16. Incubate the plate for 30 minutes at 37° C.
17. Read absorbance levels at 570 nm in a plate reader.
Note that Europium counts are normalised for protein levels by dividing counts by absorbance.
as §1, with “(no cells)” for “(Empty Vector)”

WM266.4 melanoma cells = experiment: SRB Cell Proliferation Assay (SRB GI50); assay type: cell-based; details: Homo sapiens, WM 266-4, 144 h, 6 days growth
Procedure: Biological Methods—SRB Cell Proliferation Assay (SRB GI50)
Cultures of WM266.4 melanoma cells are routinely cultured in DMEM/10% foetal bovine serum, at 37° C., in 5% CO2 water saturated atmosphere. Cultures are maintained in exponential growth phase by sub-culturing before having become confluent (3-5 day intervals). Single cell suspensions are prepared by harvesting an 80 cm^2 tissue culture flask with 5 mL commercial trypsin EDTA. After 5 minutes, the detached cells are mixed with 5 mL fully complemented culture medium and centrifugally pelleted (1000 rpm for 7 minutes). After aspirating the supernatant, the cell pellet is re-suspended in 10 mL fresh medium and the cells fully disaggregated by drawing the whole volume up/down 5 times through a 19-gauge needle. The concentration of the cells is determined using a haemocytometer (1/10 dilution). A suitable volume to give at least a 2-fold excess for the number of tests being conducted, typically 100-200 mL, is prepared by diluting the cell suspension to 10,000/mL, and 100 μL/well dispensed into 96 well plates using a programmable 8-channel peristaltic pump, giving 1000 cells/well, leaving column 12 blank. The plates are returned to the incubator for 24 hours to allow the cells to re-attach.
The compounds being tested are prepared at 20 mM in dimethylsulphoxide. Aliquots (200 μL) are diluted into 20 mL culture medium giving 200 μM, and 10 serial dilutions of 3× performed by transferring 5 mL to 10 mL. Aliquots (100 μL) of each dilution are added to the wells, using an 8-channel pipettor, thus performing a final further 2× dilution, and giving doses ranging from 100 μM to 0.005 μM. Column 11 receives plain culture medium only. Each compound is tested in quadruplicate, each replicate being the average of four wells, and two plates per compound.
After a further 6 days growth, the plates are emptied, and the cells are fixed in 10% trichloroacteic acid for 10 minutes on ice. After thorough rinsing in running tap water, the plates are dried, and stained by adding 50 μL of a solution of 0.1% sulphorhodamine-B in 1% acetic acid, for 10 minutes at room temperature. The stain is poured out and the plates thoroughly rinsed under a stream of 1% acetic acid, thus removing unbound stain, and dried. The bound stain is taken into solution by addition of 150 μL Tris buffer pH 8, followed by 10 minutes on a plate-shaker (approximately 500 rpm). The absorbance at 540 nm in each well (being proportional to the number of cells present) is determined using a plate reader.
After averaging the results in rows A-D and E-H, the blank value (row 12) is subtracted, and results expressed as percentage of the untreated value (row 11). […] The GI50 generated by this procedure is the concentration of the drug that produces a percentage control A540 midway between the saturation, and zero-effect plateaus.

Chain of B-RAF (P15056 whole entry V600E): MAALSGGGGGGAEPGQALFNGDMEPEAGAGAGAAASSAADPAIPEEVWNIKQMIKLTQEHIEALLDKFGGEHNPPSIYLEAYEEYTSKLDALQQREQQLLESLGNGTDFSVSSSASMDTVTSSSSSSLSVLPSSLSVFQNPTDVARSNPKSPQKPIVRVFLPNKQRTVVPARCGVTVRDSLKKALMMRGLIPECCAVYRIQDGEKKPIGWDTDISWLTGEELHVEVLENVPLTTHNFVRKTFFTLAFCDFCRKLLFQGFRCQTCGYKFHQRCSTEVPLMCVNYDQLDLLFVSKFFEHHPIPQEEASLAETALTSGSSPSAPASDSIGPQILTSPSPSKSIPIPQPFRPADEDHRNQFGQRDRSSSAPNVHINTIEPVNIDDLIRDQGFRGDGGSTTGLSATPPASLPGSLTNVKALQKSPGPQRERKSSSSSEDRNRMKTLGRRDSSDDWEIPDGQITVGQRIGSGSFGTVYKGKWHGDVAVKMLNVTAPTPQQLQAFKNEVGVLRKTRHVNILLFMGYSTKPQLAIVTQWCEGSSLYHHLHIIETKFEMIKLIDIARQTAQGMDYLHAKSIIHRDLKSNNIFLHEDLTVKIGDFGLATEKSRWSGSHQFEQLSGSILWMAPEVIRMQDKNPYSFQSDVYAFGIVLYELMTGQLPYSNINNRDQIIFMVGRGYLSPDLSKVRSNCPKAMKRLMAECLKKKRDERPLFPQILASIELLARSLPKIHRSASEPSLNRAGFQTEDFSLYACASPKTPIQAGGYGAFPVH

| SMILES | IC50 (B-RAF) | IC50 (pERK) | GI50 (WM266.4 melanoma cells) |
| --- | --- | --- | --- |
| O=C(Nc1cccc(C(F)(F)F)c1)Nc1ccc(Oc2ccnc3[nH]c(=O)[nH]c23)c2cccnc12 [AA-008, 4-[(5-Oxy-quinolinyl-8-amino)carbonylamino-(3-trifluoromethyl-phenyl)]-pyridin-5,6-imidazolone] | ≤ 1 µM | ≤ 10 µM | ≤ 10 µM |
| CC(C)(C)c1cc(NC(=O)Nc2ccc(Oc3ccnc4[nH]c(=O)[nH]c34)c3cccnc23)n(-c2ccccc2)n1 [AA-005, 4-[(5-Oxy-quinolinyl-8-amino)carbonyl-amino-(1-N-phenyl-3-t-butyl-pyrazol-5-yl)]-pyridin-5,6-imidazolone] | ≤ 1 µM | ≤ 10 µM | ≤ 10 µM |
| O=C(Nc1ccc(Cl)c(C(F)(F)F)c1)Nc1ccc(Oc2ccnc3[nH]c(=O)[nH]c23)c2cccnc12 [AA-007, 4-[(5-Oxy-quinolinyl-8-amino)carbonylamino-(3-trifluoromethyl-4-chloro-phenyl)]-pyridin-5,6-imidazolone] | ≤ 1 µM | ≤ 10 µM | ≤ 10 µM |
| O=C(Nc1cccc(SC(F)(F)F)c1)Nc1ccc(Oc2ccnc3[nH]c(=O)[nH]c23)c2cccnc12 [AA-009, 4-[(5-Oxy-quinolinyl-8-amino)carbonylamino-(3-trifluoromethylthio-phenyl)]-pyridin-5,6-imidazolone] | ≤ 1 µM | ≤ 10 µM | ≤ 10 µM |
| O=C(Nc1cc(C(F)(F)F)ccc1F)Nc1ccc(Oc2ccnc3[nH]c(=O)[nH]c23)c2cccnc12 [AA-010, 4-[(5-Oxy-quinolinyl-8-amino)carbonylamino-(2-fluoro-5-trifluoromethyl-phenyl)]-pyridin-5,6-imidazolone] | ≤ 1 µM | ≤ 10 µM | ≤ 10 µM |
| Cn1nc(C(C)(C)C)cc1NC(=O)Nc1ccc(Oc2ccnc3c2[nH]c(=O)n3C)c2cccnc12 [AA-017, 5-[(8-Amino-quinolinyl-5-oxy)carbonylamino-5-(1-methyl-3-t-butyl-imidazolyl)]-pyridin-[2,3]1-N-methylimidazol-2-one] | ≤ 1 µM | ≤ 10 µM | ≤ 10 µM |

Next, values leading:

| IC50 (B-RAF) | IC50 (pERK) | GI50 (WM266.4 melanoma cells) | SMILES |
| --- | --- | --- | --- |
| ≤ 1 µM | ≤ 10 µM | ≤ 10 µM | C=CCn1nc(C(C)(C)C)cc1NC(=O)Nc1ccc(Oc2ccnc3[nH]c(=O)cnc23)c2cccnc12 [BB-013] |
| ≤ 1 µM | ≤ 10 µM | ≤ 10 µM | CC(C)(C)c1cc(NC(=O)Nc2ccc(Oc3ccnc4[nH]c(=O)cnc34)c3cccnc23)n(-c2ccccc2)n1 [BB-008, 5-[(8-Amino-quinolinyl-5-oxy)carbonylamino-5-(1-N-phenyl-3-t-butyl-imidazolyl)]-pyridin-[2,3]pyrazin-2-one] |
| ≤ 1 µM | ≤ 10 µM | ≤ 10 µM | Cc1ccc(-n2nc(C(C)(C)C)cc2NC(=O)Nc2ccc(Oc3ccnc4[nH]c(=O)cnc34)c3cccnc23)cc1 [BB-007, 5-[(8-Amino-quinolinyl-5-oxy)carbonylamino-5-(1-N-p-tolyl-3-t-butyl-imidazolyl)]-pyridin-[2,3]pyrazin-2-one] |
| ≤ 1 µM | ≤ 10 µM | ≤ 10 µM | C#CCn1nc(C(C)(C)C)cc1NC(=O)Nc1ccc(Oc2ccnc3[nH]c(=O)c(C)nc23)c2cccnc12 [BB-011] |
| ≤ 1 µM | ≤ 10 µM | ≤ 10 µM | Cc1nc2c(Oc3ccc(NC(=O)Nc4cc(C(C)(C)C)nn4-c4ccccc4)c4ncccc34)ccnc2[nH]c1=O [BB-003, 5-[(8-Amino-quinolinyl-5-oxy)carbonylamino-5-(1-N-p-phenyl-3-t-butyl-imidazolyl)]-pyridin-[2,3]-3-methylpyrazin-2-one] |
| ≤ 1 µM | ≤ 10 µM | ≤ 10 µM | Cc1nc2c(Oc3ccc(NC(=O)Nc4cc(C(C)(C)C)nn4C)c4ncccc34)ccnc2[nH]c1=O [BB-006, 5-[(8-Amino-quinolinyl-5-oxy)carbonylamino-5-(1-methyl-3-t-butyl-imidazolyl)]-pyridin-[2,3]-3-methylpyrazin-2-one] |
| ≤ 1 µM | ≤ 10 µM | ≤ 10 µM | C=CCn1nc(C(C)(C)C)cc1NC(=O)Nc1ccc(Oc2ccnc3[nH]c(=O)c(C)nc23)c2cccnc12 [BB-009] |
| ≤ 1 µM | ≤ 10 µM | ≤ 10 µM | Cc1nc2c(Oc3ccc(NC(=O)Nc4cc(C(F)(F)F)ccc4F)c4ncccc34)ccnc2[nH]c1=O [BB-001, 5-[(8-Amino-quinolinyl-5-oxy)carbonylamino-(2-fluoro-5-trifloromethylphenyl)]-pyridin-[2,3]-3-methylpyrazin-2-one] |
